Data reported in patent US7919470B2, “Glycopeptide composition with improved antibiotic activity” (Xellia Pharmaceuticals APS, priority 2003, dated 2011).
Several values for one entry are separate records, joined by “and”; a condition that tells them apart may be missing. Equal entries are not always repeated.

What was measured:
[1] = test system: S. aureus ATCC 6538; assay: Modified MIC test in micro titer trays; assay type: cell-based, Staphylococcus aureus; conditions: for MIC: 24 hours, 37° C.
Description: (§1) Potency of Teicoplanin TA2, TA3-1 alone or in combination was determined by agar diffusion assays. Furthermore, the antimicrobial effect of pure and spiked products was investigated through the determination of the minimum inhibitory concentration (MIC) by a modified “MIC” test in micro titer trays.
Pure TA3-1, (Teicoplanin Material B 96% TA2-X, 4% TA3-1) and mixtures thereof were used. The test strain used was S. aureus ATCC 6538 in final concentrations of 5×10^5/ml and 5×10^4/ml respectively. The test was carried out in micro titer trays as a modification of an ordinary MIC test. Instead of using two-fold dilutions, 0.40-1.20 μg/ml with 0.20 μl divisions and 1.0-4.0 μl/ml with 1.0 μl divisions was used. The trays were incubated at 37° C. The wells were examined after 24 hours and any visible growth was noted.
In order to strengthen the evidence some experiments were performed with a modified antimicrobial analysis of Teicoplanin, spiked with different amounts of TA3-1. It was carried out in liquid medium in contrast to the agar diffusion tests and determined the MIC values. The results are summarized in Table 4, (“MIC”-values of Teicoplanin and/or TA3-1 on S. aureus ATCC6538).
(§2) Potency of teicoplanin TA2, TA3-1 alone or in combinations was determined by agar diffusion assays as described in example 1. Modified MIC-values in microtitre trays were determined as described in example 1.

[2] = test system: Staphylococcus aureus ATCC 6538; assay: Microbiological potency by agar diffusion; assay type: cell-based; conditions: for Potency IU/mg powder: agar diffusion, Example 1 spiking experiments; for Potential potency IU/mg (TA2 + TA3-1): potency of the powder related to its HPLC content of TA2 + TA3-1
Description: Accordingly, in one embodiment a Teicoplanin composition as described herein, has a higher antibiotic activity than a corresponding Teicoplanin composition that has a % (mg TA3)/(mg TA3+TA2) of 6.5%, where the antibiotic activity is measured by a microbiological agar diffusion assay using Staphylococcus aureus ATCC 6538 as test strain and the measured potential potency (IU per mg TA2+TA3/g composition) is used to calculate the antibiotic activity.
as §1
The potency test is carried out according to the assay described below. The assay method generally corresponds to USP 25 and Ph.Eur 4th ed., but differs from both with respect to test strain and from the USP with respect to agar holes (ponds) as preferred to cylinders. The test is carried out as a 2,2 design as described in section <111> of the USP.
Stock solutions of standards and samples were prepared to approximately 900 IU/ml. The Teicoplanin standard contained approximately 25.0 mg in 4.0 ml water and buffer ad 25.0 ml. The samples of Teicoplanin compositions contained approximately 25.0 mg in 4.0 ml water and buffer ad 25.0 ml. The amount of sample was adjusted according to the actual amount of standard weighed. Finally, the standard and sample were diluted with buffer to the following concentrations:
The standard or sample was applied to the plates in accordance with an 8×8 Latin square design. Immediately after application, place the plates in the incubator at 34.0° C.±2° C., for 16-18 hours.
The results are analyzed by reading the zone diameters carefully with a 10× magnification and a precision of 0.1 mm. Statistical evaluation: for calculation and validation, follow the guidelines set out in Ph. Eur. and USP, using a computer program for all calculations.
In the spiking experiments, the amount of the investigated sample (amount of powder weighed) was reduced and replaced by a corresponding amount of spiking material or stock solutions were mixed in defined ratios.
as §2

CC(=O)N[C@H]1[C@H](O[C@@H]2c3ccc(c(Cl)c3)Oc3cc4cc(c3O)Oc3ccc(cc3Cl)C[C@H]3NC(=O)[C@H](N)c5ccc(O)c(c5)Oc5cc(O)cc(c5)[C@H](NC3=O)C(=O)N[C@H]4C(=O)N[C@H]3C(=O)N[C@@H]2C(=O)N[C@H](C(=O)O)c2cc(O)cc(O[C@H]4O[C@H](CO)[C@@H](O)[C@H](O)[C@@H]4O)c2-c2cc3ccc2O)O[C@H](CO)[C@@H](O)[C@@H]1O [TA3-1, Teicoplanin A3-1]
MIC ([1]; 5 × 10^4/ml S. aureus): 2 to 3 µg/mL
MIC ([1]; 5 × 10^5/ml S. aureus): 2 to 3 µg/mL
Antimicrobial effect on S. aureus compared with Teicoplanin ([1]; Example 1, MIC determination): much lower
MIC value of pure TA3-1 relative to Targocid alone ([1]; Example 2, FIG. 6, MIC in μg powder/ml solution): 4-5 times higher
Antimicrobial effect on S. aureus relative to teicoplanin TA2 ([1]; Example 2, MIC determination): 4-5
Potency compared with Targocid ([2]; Example 2, agar diffusion): much lower potency
Potency IU/mg powder [2]: 570 IU/mg powder
Potential potency IU/mg (TA2 + TA3-1) [2]: 687 IU/mg (TA2 + TA3-1)

CC(=O)N[C@H]1[C@H](O[C@@H]2c3ccc(c(Cl)c3)Oc3cc4cc(c3O[C@@H]3O[C@H](CO)[C@@H](O)[C@H](O)[C@H]3NC(=O)CCCCCCC(C)C)Oc3ccc(cc3Cl)C[C@H]3NC(=O)[C@H](N)c5ccc(O)c(c5)Oc5cc(O)cc(c5)[C@H](NC3=O)C(=O)N[C@H]4C(=O)N[C@H]3C(=O)N[C@@H]2C(=O)N[C@H](C(=O)O)c2cc(O)cc(O[C@H]4O[C@H](CO)[C@@H](O)[C@H](O)[C@@H]4O)c2-c2cc3ccc2O)O[C@H](CO)[C@@H](O)[C@@H]1O [TA2-2, Teicoplanin A2-2]
Potency IU/mg powder [2]: 807 IU/mg powder and 776 IU/mg powder
Potential potency IU/mg (TA2 + TA3-1) [2]: 1017 IU/mg (TA2 + TA3-1) and 994 IU/mg (TA2 + TA3-1)
